This passage reports IC50 results from BindingDB's records for doi:10.1002/cbic.201300347 (Fondazione Istituto Italiano Di Tecnologia, 2013).

This assay deals with T1, Fatty-acid amide hydrolase 1 [33-574] (Rattus norvegicus, UniProt P97612).
T1 construct: 33-574
T1 sequence (P97612 whole entry): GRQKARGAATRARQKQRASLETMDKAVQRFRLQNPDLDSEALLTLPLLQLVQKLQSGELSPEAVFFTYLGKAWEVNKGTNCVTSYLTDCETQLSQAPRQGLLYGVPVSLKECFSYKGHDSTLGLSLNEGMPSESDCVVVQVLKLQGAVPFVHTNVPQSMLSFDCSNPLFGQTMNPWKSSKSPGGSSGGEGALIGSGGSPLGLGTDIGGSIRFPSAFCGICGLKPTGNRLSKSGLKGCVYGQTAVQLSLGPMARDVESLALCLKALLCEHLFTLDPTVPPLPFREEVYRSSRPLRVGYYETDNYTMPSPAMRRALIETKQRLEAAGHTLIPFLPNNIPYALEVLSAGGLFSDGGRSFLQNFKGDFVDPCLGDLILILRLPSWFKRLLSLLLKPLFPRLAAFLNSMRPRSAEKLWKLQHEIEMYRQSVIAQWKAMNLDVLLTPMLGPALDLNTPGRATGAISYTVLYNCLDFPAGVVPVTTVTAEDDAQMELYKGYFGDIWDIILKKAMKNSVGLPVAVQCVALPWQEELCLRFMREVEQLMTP

As a reminder, the IC50 is the concentration needed to halve the response being measured. Read a high IC50 as a need for much substance.

Where a name gives a salt, the structure may show the parent alone.

Compound `FC(F)(F)c1cc(-c2ccccc2)nc2ncnn12` [5‐phenyl‐7‐(trifluoromethyl)‐[1,2,4]triazolo[1,5‐ a]pyrimidine (Hit 15)] showed a concentration for half-maximal inhibition (IC50) of 110 µM.
The compound `O=C(O)c1cc(=O)cc(C(F)(F)F)o1` [4‐oxo‐6‐(trifluoromethyl)pyran‐2‐carboxylic acid (Hit 10)] came in with an IC50 of 137 µM.
For `OC1(C(F)(F)F)CC(c2ccccc2)N=N1` (stereo unspecified) [5‐phenyl‐3‐(trifluoromethyl)‐2,4‐dihydropyrazol‐3‐ ol (Hit 6)] the value was 32 µM.
Turning to `O[C@@H](c1ccccc1)C(F)(F)F` [(1S)‐2,2,2‐trifluoro‐1‐phenylethanol (Hit 12)], 563 µM corresponded to half-maximal inhibition (IC50).
`O=C(n1nc2ccccc2n1)C(F)(F)F` [1‐(1,2,3‐benzotriazol‐2‐yl)‐2,2,2‐ trifluoroethanone (Hit 14)] displayed an IC50 of 400 µM.
The same measure for `O=C1CCCc2c1cnc1nc(C(F)(F)F)nn21` [2‐(trifluoromethyl)‐7H,8H,9H‐[1,2,4]triazolo[1,5‐ a]quinazolin‐6‐one (Hit 2)]: 3 µM; for `CS(=O)(=O)c1ccc(N)c(F)c1` [2‐fluoro‐4‐methanesulfonylaniline (Hit 4)]: 58 µM; for `O=C(O)c1cccnc1Nc1cccc(C(F)(F)F)c1` [NSC_4488]: 162 µM.
With `NC(=O)c1cccc(-c2cc(OC(=O)NC3CCCCC3)ccc2C(=O)O)c1`, the IC50 worked out at 4 µM.
Consider `Cc1ccc(OC(=O)NC2CCCCC2)cc1-c1cccc(C(N)=O)c1` [3‐(3‐carbamoylphenyl)‐4‐methylphenyl N‐ cyclohexylcarbamate (Compound 1)], for which the IC50 was 0.06 µM.
For `FC(F)(F)c1ccccc1N1CCNCC1` [1‐[2‐(trifluoromethyl)phenyl]piperazine hydrochloride (Hit 1)] the value was 4.2 µM; for `Nc1nc(F)nc2c1ncn2C1O[C@H](CO)[C@@H](O)[C@H]1O` (stereo partly drawn) [(3R,4S,5R)‐2‐(6‐amino‐2‐fluoropurin‐9‐yl)‐5‐ (hydroxymethyl)oxolane‐3,4‐diol (Hit 17)], 1130 µM; for `NCc1cccc(C(F)(F)F)c1` [[3‐(trifluoromethyl)phenyl]methanamine (Hit 8)], 270 µM.
The compound `O=C(Nc1cnc2[nH]ccc2c1)c1cccc(Cl)c1Cl` [2,3‐dichloro‐N‐{1H‐pyrrolo[2,3‐b]pyridin‐5‐ yl}benzamide (Compound 2)] yielded an IC50 of 0.095 µM.
The compound `O=C(O)Cn1ccc(C(F)(F)F)n1` [[3‐(trifluoromethyl)pyrazol‐1‐yl]acetic acid (Hit 7)] yielded a half-inhibitory concentration (IC50) of 147 µM.
For the compound `Nc1cccc(C(=O)Nc2cc(=O)n(CC(F)(F)F)[nH]2)c1` [3‐amino‐N‐[5‐hydroxy‐1‐(2,2,2‐ trifluoroethyl)pyrazol‐3‐yl]benzamide (Hit 18)], the IC50 is 1320 µM.
On to `O=C(O)C1(C(F)(F)F)CCC1` [1‐(trifluoromethyl)cyclobutane‐1‐carboxylic acid (Hit 9)], for which the IC50 was determined as 465 µM.
On to `Oc1cccc(C(F)(F)F)c1` [M‐trifluoromethylphenol (Hit 5)], for which the IC50 turned out to be 450 µM.
`O=C(c1ccc(Cl)cc1)C(F)(F)F` [1‐(4‐chlorophenyl)‐2,2,2‐trifluoroethanone (Hit 3)] yielded an IC50 of 26 µM.
For `OC(c1ccc(Cl)cc1)C(F)(F)F` (stereo unspecified) [1‐(4‐chlorophenyl)‐2,2,2‐trifluoroethanol (Hit 11)], 143 µM corresponded to half-maximal inhibition (IC50).
Regarding `N#CCc1cccc(C(F)(F)F)c1` [2‐[3‐(trifluoromethyl)phenyl]acetonitrile (Hit 13)], the IC50 worked out at 720 µM.
